In BindingDB's records for doi:10.1016/j.ejmech.2017.10.076 (Wayne State University, 2018):
pIC50: −log10 of the molar value.

Assays:
[1] = target: Histone deacetylase 1 (Homo sapiens, UniProt Q13547); test: Inhibition of HDAC1 in human HeLa-S3 cell lysates preincubated for 15 mins followed by HDAC-Glo substrate addition measured after 30 to 40 mins by fluorimetric method
[2] = target: T1, Histone deacetylase 6 (Homo sapiens, UniProt Q9UBN7); test: Inhibition of HDAC6 in human HeLa-S3 cell lysates preincubated for 15 mins followed by HDAC-Glo substrate addition measured after 30 to 40 mins by fluorimetric method
T1 sequence (Q9UBN7 whole entry): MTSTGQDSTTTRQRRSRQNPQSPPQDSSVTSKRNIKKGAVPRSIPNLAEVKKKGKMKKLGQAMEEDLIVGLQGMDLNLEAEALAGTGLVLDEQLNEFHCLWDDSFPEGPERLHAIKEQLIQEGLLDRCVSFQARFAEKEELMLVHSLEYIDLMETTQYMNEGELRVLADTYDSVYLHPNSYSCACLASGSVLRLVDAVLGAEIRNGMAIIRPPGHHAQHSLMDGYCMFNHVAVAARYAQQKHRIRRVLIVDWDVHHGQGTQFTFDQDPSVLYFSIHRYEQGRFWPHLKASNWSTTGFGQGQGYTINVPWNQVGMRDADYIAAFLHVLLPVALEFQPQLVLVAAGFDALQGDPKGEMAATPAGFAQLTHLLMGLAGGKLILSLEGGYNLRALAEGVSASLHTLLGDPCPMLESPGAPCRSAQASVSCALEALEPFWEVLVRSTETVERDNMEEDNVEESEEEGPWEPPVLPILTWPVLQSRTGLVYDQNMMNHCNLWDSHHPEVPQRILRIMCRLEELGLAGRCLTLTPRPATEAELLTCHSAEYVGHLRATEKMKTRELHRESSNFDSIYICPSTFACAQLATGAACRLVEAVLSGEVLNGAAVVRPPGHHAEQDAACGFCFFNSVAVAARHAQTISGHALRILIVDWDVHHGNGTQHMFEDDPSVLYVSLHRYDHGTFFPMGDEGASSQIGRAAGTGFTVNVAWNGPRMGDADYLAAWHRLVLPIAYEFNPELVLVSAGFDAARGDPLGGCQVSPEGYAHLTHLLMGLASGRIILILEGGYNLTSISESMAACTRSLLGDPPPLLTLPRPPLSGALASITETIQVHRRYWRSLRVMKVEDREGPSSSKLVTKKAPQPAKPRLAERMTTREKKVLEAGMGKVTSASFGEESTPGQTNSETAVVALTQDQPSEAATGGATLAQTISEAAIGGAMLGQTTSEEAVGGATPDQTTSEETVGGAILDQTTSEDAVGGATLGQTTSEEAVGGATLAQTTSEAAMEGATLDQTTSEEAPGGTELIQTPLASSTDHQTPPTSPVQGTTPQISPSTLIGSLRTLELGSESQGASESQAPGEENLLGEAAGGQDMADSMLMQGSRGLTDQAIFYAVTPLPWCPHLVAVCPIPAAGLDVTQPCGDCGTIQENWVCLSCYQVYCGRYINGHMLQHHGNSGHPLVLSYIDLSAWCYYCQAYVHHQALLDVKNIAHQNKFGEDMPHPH

[3] = target: T2, Histone deacetylase 8 (Homo sapiens, UniProt Q9BY41); test: Inhibition of human recombinant full-length C-terminal His-tagged HDAC8 expressed in baculovirus infected Sf9 insect cell preincubated for 15 mins followed by HDAC-Glo substrate addition measured after 30 mins by fluorimetric method
T2 sequence (Q9BY41 whole entry): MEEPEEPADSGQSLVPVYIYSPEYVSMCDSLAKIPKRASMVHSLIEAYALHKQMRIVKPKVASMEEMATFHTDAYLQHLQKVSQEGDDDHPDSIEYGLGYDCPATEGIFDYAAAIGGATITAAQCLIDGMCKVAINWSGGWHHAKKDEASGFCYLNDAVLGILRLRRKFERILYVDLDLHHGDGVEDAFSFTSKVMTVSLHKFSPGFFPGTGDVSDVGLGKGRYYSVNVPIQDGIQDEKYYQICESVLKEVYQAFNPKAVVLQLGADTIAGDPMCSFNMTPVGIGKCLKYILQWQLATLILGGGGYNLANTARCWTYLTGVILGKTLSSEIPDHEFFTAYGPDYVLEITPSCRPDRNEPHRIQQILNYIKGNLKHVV

[4] = target: Histone deacetylase 3 (Homo sapiens, UniProt O15379); test: Inhibition of HDAC3 in human HeLa-S3 cell lysates preincubated for 15 mins followed by HDAC-Glo substrate addition measured after 30 to 40 mins by fluorimetric method
Sequence of Histone deacetylase 3 (O15379 whole entry): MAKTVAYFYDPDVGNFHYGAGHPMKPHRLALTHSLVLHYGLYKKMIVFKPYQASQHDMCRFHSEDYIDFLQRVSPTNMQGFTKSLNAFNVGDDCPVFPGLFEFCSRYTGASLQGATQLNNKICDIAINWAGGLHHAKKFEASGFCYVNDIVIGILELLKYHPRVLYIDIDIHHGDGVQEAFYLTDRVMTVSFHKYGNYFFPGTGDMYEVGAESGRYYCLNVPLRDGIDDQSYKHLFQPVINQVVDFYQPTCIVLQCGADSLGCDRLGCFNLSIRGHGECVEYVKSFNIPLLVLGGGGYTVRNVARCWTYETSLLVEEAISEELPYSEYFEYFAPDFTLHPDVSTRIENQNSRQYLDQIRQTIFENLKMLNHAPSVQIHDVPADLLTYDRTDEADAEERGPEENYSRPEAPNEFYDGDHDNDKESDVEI

Sequence of Histone deacetylase 1 (Q13547 whole entry): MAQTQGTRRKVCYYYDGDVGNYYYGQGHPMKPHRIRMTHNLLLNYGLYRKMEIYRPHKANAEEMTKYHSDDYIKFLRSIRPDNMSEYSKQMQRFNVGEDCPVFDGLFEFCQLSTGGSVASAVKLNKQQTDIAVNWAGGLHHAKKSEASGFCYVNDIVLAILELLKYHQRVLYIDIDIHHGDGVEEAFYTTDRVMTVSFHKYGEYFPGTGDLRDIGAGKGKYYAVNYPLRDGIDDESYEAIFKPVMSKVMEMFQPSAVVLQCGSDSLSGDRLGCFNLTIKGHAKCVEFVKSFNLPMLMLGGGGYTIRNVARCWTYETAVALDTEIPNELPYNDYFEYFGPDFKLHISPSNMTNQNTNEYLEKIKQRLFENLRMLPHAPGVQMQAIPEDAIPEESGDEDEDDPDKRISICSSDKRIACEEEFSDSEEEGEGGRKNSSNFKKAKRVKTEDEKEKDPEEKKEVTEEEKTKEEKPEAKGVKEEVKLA

In the case of `O=C(CCC(CCCC(=O)Nc1ccccc1)c1ccccc1)NO` (centres undefined), the pIC50 [1] was 4.96, the pIC50 [2] was 6.96 and the pIC50 [3] was 6.54. It also gave a pIC50 [4] of 4.64.
